Measured values taken from the NIST ThermoML archive (doi:10.1016/j.jct.2015.09.034).
± gives the expanded uncertainty stated by the source.

Details: Liquid, Buoyancy - hydrostatic balance with magnetic suspension - one sinker

C [methane]
Details	mass density [kg/m3]
105 K, 185.5 kPa	432.098 ± 0.16
105 K, 478.95 kPa	432.339 ± 0.16
105 K, 973.88 kPa	432.743 ± 0.16
105 K, 1970.8 kPa	433.554 ± 0.17
105 K, 5044.6 kPa	435.981 ± 0.17
115 K, 479.33 kPa	417.827 ± 0.16
115 K, 973.28 kPa	418.319 ± 0.16
115 K, 1970 kPa	419.298 ± 0.16
125 K, 477.88 kPa	402.38 ± 0.15
125 K, 972.71 kPa	402.99 ± 0.15
125 K, 1970.4 kPa	404.194 ± 0.15
125 K, 5112.4 kPa	407.803 ± 0.15
135 K, 783.75 kPa	386.1 ± 0.15
135 K, 1001.2 kPa	386.441 ± 0.15
135 K, 2014.3 kPa	387.992 ± 0.15
135 K, 5208.9 kPa	392.557 ± 0.15
